The inhibition is the drop in the measured response relative to a control, in per cent. By pIC50 is commonly meant −log10 of the IC50, conventionally taken in molar units.

Data set [1] deals with Peritoneal macrophage. Briefly: Antiinflammatory activity in C57BL/6J mouse peritoneal macrophages assessed as inhibition of LPS-induced NO production at 10 uM preincubated for 1 hrs followed by LPS-stimulation and measured after 24 hrs by Griess reagent-based assay relative to control. The format is functional. The settings on record: time 25 hrs. Background: Nitrite, measured by Griess reagent, commonly stands in for NO production.

Data set [2] relates to Peritoneal macrophage. Briefly: Antiinflammatory activity in C57BL/6J mouse peritoneal macrophages assessed as inhibition of LPS-induced NO production preincubated for 1 hrs followed by LPS-stimulation and measured after 24 hrs by Griess reagent-based assay relative to control. The class given is functional, cell-based.
Data set [3] relates to Peritoneal macrophage. Briefly: Cytotoxicity against C57BL/6J mouse Peritoneal macrophages assessed as reduction in cell growth incubated for 1 hr. The class given is cell-based.

pIC50: −log10 of the molar value.

Consider `CC[C@](O)(C(=O)OC/C(=C\CO)C(=O)OC)[C@@H](C)O`, for which the inhibition at 10 µM with Peritoneal macrophage [1] was determined as 64.3%. The pIC50 with Peritoneal macrophage [2] is 5.54. For the same compound, the Activity entry in the data set with Peritoneal macrophage [3] is “Non-Toxic”.
The matching figures for `C/C=C(\CO)C(=O)OC/C(=C\CO)C(=O)OC`: 84.9%, 5.92 and “Non-Toxic”.
